From patent US6201116A, “Halide indicators” (The Regents of the University of California, priority 1999, dated 2001)

What was measured:
[1] = In vitro fluorescence quenching by Cl^- (Stern-Volmer); assay type: physicochemical; details: in water (or saline)
Experimental: Computations. In vitro fluorescence quenching studies were carried out at peak excitation and emission wavelengths. Microliter aliquots of the sodium salt of the quenching anion (1 M) were added to indicator solution in 5 mM sodium phosphate (pH 7.2, unless indicated otherwise). Fluorescence intensities in the absence (Fo) and presence (F) of quencher anion ([Q]) were measured to give the Stem-Volmer constant (Kq) as defined by: Fo /F=1+Kq [Q].

cells [2] = assay: Fluorescence lifetime in cells (frequency-domain microfluorimetry); assay type: cell-based
Experimental: Time resolved fluorescence measurements. Fluorescence lifetime and anisotropy decay measurements were carried out in the frequency domain by cuvette fluorimetry using a Fourier transform fluorimeter (48000 MHF, SLM Instruments, Urbana, Ill.) or by fluorescence microscopy using epifluorescence microscope optics in place of the cuvette compartment (Verkman et al., 1991). For microscopy measurements, impulse-modulated vertically polarized light (442 nm, He--Cd laser 35 mwatts) was reflected onto the sample by a 510 nm dichroic mirror and objective lens; emitted fluorescence was filtered by a 515 nm barrier filter and passed through a rotatable analyzing calcite polarizer. […]
Analysis of lifetime and time-resolved anisotropy was performed by a comparative approach. […] Median phase and modulation values for paired data were analyzed by nonlinear least-squares for determination of lifetimes and rotational correlation times.
A calibration study was done to determine the intracellular sensitivity of LZQ to I^-. […] LZQ fluorescence changed reversibly in response to changes in solution I^-. […] Fluorescence lifetime analysis was done to determine whether LZQ fluorescence is quenched in cells by substances other than I^-. Nanosecond lifetimes were measured by frequency-domain microfluorimetry. […]

cells [3] = assay: Cell loading and intracellular distribution (fluorescence/confocal microscopy); assay type: cell-based
Experimental: (§1) Fluorescence microscopy. Fluorescence microscopy measurements were performed as described previously (Chao et al., 1989). Briefly, coverglasses were mounted in a 0.5 ml perfusion chamber in which the cell-free glass surface made contact with an oil immersion objective (Nikon ×40 magnification, numerical aperture[NA] 1.3). Cell fluorescence was excited at 365±10 nm (SPQ) or 420 nm±10 nm (LZQ and LMQ). Emitted fluorescence was detected by a photomultiplier in a Nikon inverted epifluorescence microscope using a 410 nm dichroic mirror and 420 nm barrier filter (SPQ) or a 455 nm dichroic mirror and 500 nm barrier filter (LZQ). For cells colabeled with SPQ and LZQ, SPQ fluorescence was excited at 365±10 nm and detected using a 410 nm dichroic mirror and 455±30 nm interference filter. Confocal fluorescence micrographs were obtained using a Nipkow wheel confocal microscope and cooled CCD camera detector using a ×60 oil immersion objective (Nikon, NA 1.4). LZQ-labeled cells were viewed using a fluorescein filter set (excitation 480±15 nm, emission 520±20 nm).
Transport measurements. Cells were labeled with LZQ or SPQ by hypotonic shock (loading buffer/water 1:1 containing 2 mM LZQ or 7.5 mM SPQ) for 5 min at room temperature or by overnight incubation with indicators in the cell culture medium. Extracellular indicator was removed by washing just prior to measurements. For fluorescence microscopy, glass coverslips were then mounted in a perfusion chamber (flow ~2 ml/min) in which solutions were exchanged using a 4-way valve. For microplate reader measurements, cells in 96-well plates were bathed in […] of the `1st buffer` (see Table 3) and […] of the Cl^- -containing, I^- -free solution was injected into the well to drive Cl^- /I^- exchange (protocol 1). For stimulation of CFTR using protocol 2, […] of a 1:8 mixture of the 1st buffer and the 2nd buffer containing […] forskolin, 2 mM CPT-cAMP and […] IBMX was added.
(§2) LZQ and LMQ were loaded into cells efficiently by hypotonic shock or passive incubation. […] As was found for SPQ, LZQ and LMQ were non-toxic to cells in assays of cell growth (2 mM in culture medium for 72 h).

cells [4] = assay: Chemical stability in cells (thin layer chromatography of lysates); assay type: cell-based; details: TLC of lysates from loaded cells
Experimental: as §2

cells [5] = assay: Time-resolved anisotropy in cells; assay type: cell-based
Experimental: Time resolved fluorescence measurements. Fluorescence lifetime and anisotropy decay measurements were carried out in the frequency domain by cuvette fluorimetry using a Fourier transform fluorimeter (48000 MHF, SLM Instruments, Urbana, Ill.) or by fluorescence microscopy using epifluorescence microscope optics in place of the cuvette compartment (Verkman et al., 1991). For microscopy measurements, impulse-modulated vertically polarized light (442 nm, He--Cd laser 35 mwatts) was reflected onto the sample by a 510 nm dichroic mirror and objective lens; emitted fluorescence was filtered by a 515 nm barrier filter and passed through a rotatable analyzing calcite polarizer. In some experiments, a biconcave lens was introduced just in front of the dichroic mirror to diverge beam diameter in the focal plane to […].
Analysis of lifetime and time-resolved anisotropy was performed by a comparative approach. Generally six pairs of measurements (each acquisition 8 s) were obtained, comparing sample and reference (fluorescein in 0.1 N NaOH, lifetime 4.0 ns) for measurement of lifetime, and parallel and perpendicular orientations of the emission polarizer for measurement of anisotropy decay. The phase-modulation data consisted of phase angles and modulation ratios at 40 discrete, equally spaced modulation frequencies (5-200 MHz). The analyzing polarizer was positioned at the magic angle for lifetime measurements. Additional details of the data acquisition and analysis routines were described previously (Verkman et al., 1991). Median phase and modulation values for paired data were analyzed by nonlinear least-squares for determination of lifetimes and rotational correlation times.
Time-resolved anisotropy was measured to quantify intracellular LZQ binding. In water, LZQ rotated freely with a single-component rotational correlation time of 121±3 ps (n=3). For LZQ in cells, a plot of differential phase and modulation amplitude ratio indicated a two-component anisotropy decay model with a major component (fractional amplitude 0.90-0.94) of 144±10 ps, similar to that in water.

[6] = Stopped-flow response to addition and removal of I^-; assay type: physicochemical
CFTR = assay: Colabeling: effect of LZQ on SPQ fluorescence / CFTR-mediated Cl^- transport; assay type: cell-based; details: Cl^-/NO3^- exchange; SPQ alone vs. colabeled with LZQ
Experimental: as §1, with “LZQ-labeled cells were viewed using a fluorescein filter set (excitation 480±15 nm, emission 520±20 nm).” left out
Transport measurements. […] For fluorescence microscopy, glass coverslips were then mounted in a perfusion chamber (flow ~2 ml/min) in which solutions were exchanged using a 4-way valve. For microplate reader measurements, cells in 96-well plates were bathed in […] of the `1st buffer` (see Table 3) and […] of the Cl^- -containing, I^- -free solution was injected into the well to drive Cl^- /I^- exchange (protocol 1). […]

fluorescence lifetime in cells (cells [2]; in the absence of I^-, n=4): 6.5±0.3 ns | chemical stability in cells (cells [4]): remained chemically stable in cells | fractional amplitude of major component (cells [5]; in cells): 0.90-0.94 | rotational correlation time, major component (cells [5]; in cells, two-component model): 144±10 ps
SMILES: [O-]c1nc2c(N[C@@H]3O[C@H](CO)[C@@H](O)[C@H]3O)ncnc2[n+]2ccccc12 [I, 4-(β-D-ribofuranosylamino)-pyrido [2,1-h] pteridin-11-ium-5-olate]
Stern-Volmer constant, Cl^- [1]: < 1 M⁻¹ | quenching by intracellular components (cells [2]): quenched little by intracellular components | Cellular properties: staining/distribution (cells [3]; Table 4): staining uniform | labeling of cytoplasm and nucleoplasm (cells [3]; all cell types tested: T84, Calu-3, JME, LLC-PK1, MDCK, 3T3 fibroblasts, CHO, HeLa): uniform labeling of the cytoplasm and nucleoplasm | fluorescence intensity in cells vs. SPQ (cells [3]; confocal, substantially higher SPQ concentration used): remarkably more intense | loading into cells (cells [3]; hypotonic shock or passive incubation): efficiently | binding to intracellular components (cells [5]): negligible binding | response time to rapid addition and removal of I^- [6]: < 1 ms | effect on time course of SPQ fluorescence / CFTR-mediated Cl^- transport (CFTR): did not affect the time course of SPQ fluorescence
